Among the test systems are DU-145 prostate; HCT-116 colon; KM12 colon; MDA-MB-435; MOLT-4 leukemia; OVCAR-3 ovarian; PC-3 prostate; SN12C renal; SW-620 colon; UACC-62 melanoma.
Common to all, as to experiment: growth of human tumour cells (NCI), 48 h

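Following 48 hours of exposure in 96-well plates, responses at five concentrations were used to interpolate endpoints linearly. Abbreviation: GI50, concentration required for 50% inhibition of growth. TGI: concentration producing complete growth inhibition.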 Bounds are passed on as bounds.

`COc1cc(-c2nn(-c3ccc(NC(=O)c4ccc(Cl)c(Cl)c4)cc3)cc2-c2ccncc2)ccc1Cl`: the GI50 was greater than 100 µM in the test on DU-145 prostate; 4.6 µM in the test on HCT-116 colon; 5.97 µM in the test with KM12 colon; 7.14 µM with MDA-MB-435; 5.29 µM with MOLT-4 leukemia; greater than 100 µM in the test on OVCAR-3 ovarian. Besides, the GI50 in the test with PC-3 prostate was 6.28 µM; in the test on SN12C renal, 5.11 µM; with SW-620 colon it was 5.63 µM; in the test with UACC-62 melanoma, 6.34 µM. In addition, the TGI in the test with DU-145 prostate, in the test on HCT-116 colon, in the test on KM12 colon, in the test with MDA-MB-435, with MOLT-4 leukemia and in the test with OVCAR-3 ovarian was greater than 100 µM each time. Also, the TGI with PC-3 prostate, with SN12C renal, in the test on SW-620 colon and in the test on UACC-62 melanoma was greater than 100 µM throughout.
On to `CCOC(=O)c1ccc(NC(=O)N2CC(C)OC(C)C2)cc1` (stereo not given), for which the GI50 with DU-145 prostate, in the test with HCT-116 colon, with KM12 colon, in the test on MDA-MB-435, with MOLT-4 leukemia and with OVCAR-3 ovarian was greater than 100 µM in each case. The GI50 in the test with PC-3 prostate, with SN12C renal, in the test with SW-620 colon and in the test on UACC-62 melanoma was greater than 100 µM each time. Also, the TGI in the test on DU-145 prostate, in the test with HCT-116 colon, in the test on KM12 colon, in the test on MDA-MB-435, with MOLT-4 leukemia and in the test on OVCAR-3 ovarian was greater than 100 µM each time. The TGI in the test on PC-3 prostate, in the test on SN12C renal, in the test on SW-620 colon and with UACC-62 melanoma was greater than 100 µM in each case.
For the compound `O=C(CCCCCCSc1nc(-c2ccccc2)cc(-c2ccc(Cl)cc2)n1)NO`, the GI50 in the test on DU-145 prostate was 2.25 µM; in the test on HCT-116 colon it was 1.14 µM; in the test on KM12 colon it was 2.97 µM; with MDA-MB-435, 2.24 µM; in the test on MOLT-4 leukemia, 0.557 µM; with OVCAR-3 ovarian, 1.96 µM. Besides, the GI50 with PC-3 prostate is 1.98 µM; in the test with SN12C renal, 2.14 µM; in the test with SW-620 colon it was 1.48 µM; in the test on UACC-62 melanoma, 1.37 µM. Also, the TGI with DU-145 prostate was determined as 10.6 µM; in the test on HCT-116 colon, 12.4 µM; with KM12 colon it was 13.5 µM; with MDA-MB-435, 10.9 µM; in the test with MOLT-4 leukemia it was 4.26 µM; in the test on OVCAR-3 ovarian it was 6.86 µM. The TGI with PC-3 prostate was found to be 10.5 µM; with SN12C renal it was 6.35 µM; in the test with SW-620 colon, 10.4 µM; with UACC-62 melanoma, 3.5 µM.
`COc1ccc(N=C2CSc3nnc(-c4cc(F)c(Cl)cc4Cl)n3N2)cc1`: the GI50 in the test with DU-145 prostate is 1.47 µM; in the test with HCT-116 colon it was 0.43 µM; with KM12 colon it was 0.469 µM; in the test with MDA-MB-435, 0.208 µM; in the test on MOLT-4 leukemia, 0.486 µM; in the test on OVCAR-3 ovarian, 0.466 µM. Also, the GI50 with PC-3 prostate was 1.17 µM; with SN12C renal, 2.61 µM; in the test on SW-620 colon, 0.553 µM; in the test with UACC-62 melanoma, 0.576 µM. Besides, the TGI with DU-145 prostate turned out to be 3.87 µM; with HCT-116 colon, 1.96 µM; in the test on KM12 colon it was 3.45 µM; in the test with MDA-MB-435, 0.785 µM; with MOLT-4 leukemia it was 14.9 µM; in the test on OVCAR-3 ovarian, 2.02 µM. The TGI with PC-3 prostate is 13.9 µM; in the test on SN12C renal, 14.4 µM; with SW-620 colon it was 13.1 µM; with UACC-62 melanoma, 23.2 µM.
Turning to `O=C(Nc1ccc(N2CCNCC2)cc1)c1[nH]ncc1Nc1ncnc2sc3c(c12)CCC3`, the GI50 was 0.302 µM in the test with DU-145 prostate; 0.109 µM in the test with HCT-116 colon; 0.219 µM in the test with KM12 colon; 0.199 µM in the test on MDA-MB-435; 0.0835 µM with MOLT-4 leukemia; 0.256 µM in the test with OVCAR-3 ovarian. Besides, the GI50 with PC-3 prostate was 0.179 µM; in the test with SN12C renal, 0.412 µM; with SW-620 colon it was 0.157 µM; in the test on UACC-62 melanoma it was 1.07 µM. The TGI came to 1.19 µM with DU-145 prostate; 0.297 µM in the test with HCT-116 colon; 1.33 µM with KM12 colon; 1.77 µM in the test on MDA-MB-435; 1.07 µM with MOLT-4 leukemia; 1.67 µM in the test on OVCAR-3 ovarian. In addition, the TGI was found to be 1.49 µM with PC-3 prostate, 1.84 µM in the test with SN12C renal, 0.756 µM in the test with SW-620 colon and 2.31 µM in the test on UACC-62 melanoma.
Consider `COc1cc(O)c([C@@H]2C[C@H](CCc3ccc(O)cc3)O[C@H](c3ccc(O)cc3)C2)c(O)c1C(=O)/C=C/c1ccc(O)cc1`, for which the GI50 with DU-145 prostate is 3.15 µM; in the test on HCT-116 colon, 2.74 µM; in the test with KM12 colon, 9.83 µM; in the test with MDA-MB-435, 3.14 µM; in the test on MOLT-4 leukemia, 1.44 µM; in the test with OVCAR-3 ovarian, 2.69 µM. In addition, the GI50 is 2.45 µM in the test on PC-3 prostate, 3.23 µM in the test on SN12C renal, 2.24 µM in the test with SW-620 colon and 2.38 µM with UACC-62 melanoma. Also, the TGI in the test with DU-145 prostate is 10.1 µM; with HCT-116 colon, 8.27 µM; with KM12 colon, greater than 35 µM; with MDA-MB-435 it was 10.8 µM; in the test with MOLT-4 leukemia, 4.24 µM; with OVCAR-3 ovarian, 7.16 µM. Also, the TGI amounted to 6.94 µM with PC-3 prostate, 13.8 µM in the test with SN12C renal, 6.12 µM in the test on SW-620 colon and 5.92 µM with UACC-62 melanoma.
Regarding `COc1cc2c(cc1OC)C(=O)/C(=C/c1cccc(OCC(=O)c3ccccc3)c1)C2`, the GI50 in the test on DU-145 prostate is 11.3 µM; in the test with HCT-116 colon, 5.44 µM; in the test on KM12 colon, 7.79 µM; with MDA-MB-435, 23.1 µM; in the test on MOLT-4 leukemia, 2.58 µM; in the test on OVCAR-3 ovarian it was 17.1 µM. Further, the GI50 was 5.11 µM with PC-3 prostate, 23.8 µM in the test on SN12C renal, 38.3 µM in the test with SW-620 colon and 8.07 µM in the test with UACC-62 melanoma. Moreover, the TGI was greater than 100 µM in the test on DU-145 prostate; greater than 100 µM in the test on HCT-116 colon; greater than 100 µM with KM12 colon; greater than 100 µM in the test on MDA-MB-435; 14 µM in the test on MOLT-4 leukemia; greater than 100 µM in the test on OVCAR-3 ovarian. The TGI is greater than 100 µM with PC-3 prostate, greater than 100 µM in the test with SN12C renal, greater than 100 µM in the test with SW-620 colon and 90.8 µM in the test on UACC-62 melanoma.

(Values after PubChem BioAssay (NCI).)
